Measurements reported in the supplement of paper PMC3974653.
Where a name gives a salt, the structure may show the parent alone.

tested on: MTT (mouse pheochromocytoma); experiment: IC50 of cell viability (ATP content); details: (24 or 48 h)
Procedure, shortened: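 Each well of a white 1536-well plate received 5 µl of MTT mouse pheochromocytoma cells at 200,000 cells/ml in DMEM containing 5% FBS and 1% horse serum. After overnight culture at 37°C, 5% CO2, cells were exposed for 24 or 48 hrs to 23 nl of library compound in DMSO, pinned at 8 final concentrations from 0.5 nM to 46 µM. CellTiter-Glo luminescence was read after 15 minutes, and IC50 was obtained from a four-parameter logistic fit of signals normalised to positive-control and DMSO wells.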

| SMILES | IC50 of cell viability [µM] |
| --- | --- |
| CCCCOC(=O)c1ccc(O)cc1 [Butylparaben] | > 46 |
| COc1ccc2c(=O)c(C)c(-c3ccccc3)oc2c1CN(C)C [DIMEFLINE HYDROCHLORIDE] | > 46 |
| CCN(CC)CCNC(=O)c1cc(Br)c(N)cc1OC [BROMOPRIDE] | > 46 |
| CCCCC(=O)[O-] [Valeric acid] | > 46 |
| CCN(CC)CCc1c[nH]c2ccccc12 [N,N-Diethyltryptamine] | > 46 |
| COc1ccc(C[C@@H]2c3cc(OC)c(OC)cc3CC[N@@+]2(C)CCC(=O)OCCCCCOC(=O)CC[N@+]2(C)CCc3cc(OC)c(OC)cc3[C@H]2Cc2ccc(OC)c(OC)c2)cc1OC.O=S(=O)([O-])c1ccccc1.O=S(=O)([O-])c1ccccc1 [Atracurium besylate] | > 46 |
| CCn1ccnc1CC1COc2ccccc2O1 (stereo not drawn) [IMILOXAN] | > 46 |
| C[C@H](CS)C(=O)N1CCC[C@H]1C(=O)O [CAPTOPRIL] | > 46 |
| O=C(CCCN1CCC(O)(c2ccc(Br)cc2)CC1)c1ccc(F)cc1 [Bromperidol] | > 46 |
| CC(=O)N(O)CCCCCNC(=O)CCC(=O)N(O)CCCCCNC(=O)CCC(=O)N(O)CCCCCN.C[S+](=O)([O-])O [Deferoxamine mesylate] | > 46 |
| CCN1\C=C(\C(O)=O)C(=O)C2=CC(=C(N3CCN[C@@H](C)C3)C(=C12)F)F [Lomefloxacin hydrochloride] | > 46 |
| CN[C@H]1[C@H](O[C@@H]2O[C@@H](CO)[C@H](N)[C@H](O)[C@@H]2O)O[C@H]2C[C@@H](N)[C@@H](O[C@H]3[C@H](O)[C@H](O)[C@H](N)C[C@@H]3N)O[C@@H]2[C@H]1O [Apramycin] | > 46 |
| CCN(CC)CCNC(C(=O)OCCC(C)C)c1ccccc1 (stereo not drawn) [ACAMYLOPHENINE HYDROCHLORIDE] | > 46 |
| COc1ccc2c3c1O[C@H]1C(=O)CC[C@H]4[C@@H](C2)N(C)CC[C@]314 [HYDROCODONE BITARTRATE] | > 46 |
| CCOc1cc(C=O)ccc1O [Ethylvanillin] | > 46 |
| CCCCC(CC)COS(=O)(=O)[O-] (stereo not drawn) [NATRII ETASULFAS] | > 46 |
| CCCC(CCC)C(=O)OC1C[C@H]2CC[C@@H](C1)[N+]2(C)C (stereo partly drawn) [Anisotropine methyl bromide] | > 46 |
| CC(C)(C)C(=O)Oc1ccc([S+](=O)([O-])Nc2ccccc2C(=O)NCC(=O)[O-])cc1.O.O.O.O.[Na+] [SIVELESTAT SODIUM HYDRATE] | > 46 |
| COc1ccc2c(C(=S)N(C)CC(=O)O)cccc2c1C(F)(F)F [Tolrestat] | > 46 |
| O=C(O)c1ccc[n+]([O-])c1 [Acide oxiniacique] | > 46 |
| OC1OC[C@@H](O)[C@H](O)[C@@H]1O (stereo partly drawn) [Xylose] | > 46 |

| SMILES | IC50 of cell viability [µM] |
| --- | --- |
| N#C/C(=C1/SCC(c2ccccc2Cl)S1)n1ccnc1 (stereo not drawn) [LANOCONAZOLE] | > 46 |
| CN[C@@H](C)[C@H]1CC[C@@H](N)[C@H](O[C@@H]2[C@@H](O)[C@H](O[C@@H]3OC[C@@](C)(O)[C@@H](NC)[C@H]3O)[C@H](N)C[C@@H]2N)O1.CN[C@H]1[C@@H](O)[C@H](O[C@H]2[C@H](O)[C@@H](O[C@@H]3O[C@@H](CN)CC[C@H]3N)[C@@H](N)C[C@H]2N)OC[C@@]1(C)O.CN[C@H]1[C@@H](O)[C@H](O[C@H]2[C@H](O)[C@@H](O[C@@H]3O[C@@H]([C@H](C)N)CC[C@H]3N)[C@@H](N)C[C@H]2N)OC[C@@]1(C)O.O=[S+]([O-])(O)O [Gentamicine sulfate] | > 46 |
| CN(C1CCCCC1)C(=O)CCCOC2=CC\3=C(NC(=O)\C=C3)C=C2 [Cilostamide] | > 46 |
| C[C@H]1OC(OC2C(O)[C@@H](O)C(OC3C(O)[C@@H](O)C(O)O[C@@H]3CO)O[C@@H]2CO)[C@H](O)C(O)C1N[C@H]1C=C(CO)[C@@H](O)[C@H](O)C1O (stereo partly drawn) [Acarbose] | > 46 |
| C[C@]12C/C(=C/O)C(=O)C[C@@H]1CC[C@@H]1[C@@H]2CC[C@@]2(C)[C@H]1CC[C@]2(C)O [Oxymetholone] | > 46 |
| CCC(C)C1O[C@]2(C=CC1C)CC1CC(C/C=C(\C)[C@H](OC3CC(OC)C(O[C@H]4CC(OC)[C@@H](O)C(C)O4)C(C)O3)[C@@H](C)/C=C/C=C3\COC4C(O)C(C)=C[C@H](C(=O)O1)[C@@]34O)O2 (stereo partly drawn) [AVERMECTIN B1] | > 46 |
| CC1[C@H]2Cc3ccc(O)cc3[C@]1(C)CCN2CCc1ccccc1 (single isomer, unassigned; (-)) [(-)-Phenazocine] | > 46 |
| COc1ccc2c(c1)C(=O)N(CCc1ccc([S+](=O)([O-])NC(=O)NC3CCCCC3)cc1)C(=O)C2(C)C [Gliquidone] | > 46 |
| CCCCCCCC(=O)OCC(O)CO (stereo not drawn) [MONOCTANOIN] | > 46 |
| Oc1ccc(CCNCCCCCCNCCc2ccccc2)cc1O [Dopexamine] | > 46 |
| [Na+].CN(C[S]([O-])(=O)=O)\C1=C(/C)N(C)N(C1=O)C2=CC=CC=C2 [Dipyrone] | > 46 |
| C[C@@H](C(=O)O)c1ccc(C2CCCCC2)c2ccccc12 [Quadrisol] | > 46 |
| CC(C)=O [Acetone] | > 46 |
| C\C1=C(/C)C(=O)\C(=C(\C)C1=O)CCCCC#CCCCC#CCO [AA-861] | > 46 |
| COc1ccc(OC)c([C@H](O)CNC(=O)CN)c1 [Midodrine hydrochloride] | > 46 |
| O=C(NC1CCN(CCc2c[nH]c3ccccc23)CC1)c1ccccc1 [INDORAMIN HYDROCHLORIDE] | > 46 |
| CC1=CC=CC=C1N2\C(=N/C3=CC=CC=C3C2=O)C [Methaqualone] | > 46 |
| O=C(O)Cc1ccc(OCCNC[C@H](O)c2ccccc2)cc1 [ZD 2079] | > 46 |
| C[C@]12C=CC(=O)C=C1CC[C@@H]1[C@@H]2CC[C@@]2(C)[C@H]1CC[C@]2(C)O [Metandienona] | > 46 |
| NC/1=N/C(=O)N(/C=C1)[C@H]2CO[C@H](CO)O2 [TROXACITABINE (Troxatyl)] | > 46 |
| CCN1CCN(CC1)C2=CC3=C(C=C2F)C(=O)C(=C/N3C4CC4)\C(O)=O [ENROFLOXACIN] | > 46 |

| SMILES | IC50 of cell viability [µM] |
| --- | --- |
| CCOC(=O)C1(c2ccccc2)CCCN(C)CC1 (stereo not drawn) [Ethoheptazine hydrochloride] | > 46 |
| Nc1ncnc2c1ncn2[C@@H]1O[C@H](CO)[C@@H](O)[C@H]1O [ADENOSINE] | > 46 |
| COc1ccc(C2NC(=S)N3C(c4ccc(OC)c(OC)c4)NC(=S)N23)cc1OC (stereo not drawn) | > 46 |
| CC(C)Cc1ccc([C@H](C)C(=O)O)cc1 [Dexibuprofen] | > 46 |
| OC[C@H]1O[C@@H](n2cnc3c2N=CNC[C@H]3O)C[C@@H]1O [Pentostatin] | > 46 |
| CN1C(CCl)Nc2cc(Cl)c([S+](N)(=O)[O-])cc2[S+]1(=O)[O-] (stereo not drawn) [METHYCLOTHIAZIDE] | > 46 |
| CCCCCCCCCCCCCCCC(=O)OCC(COP(=O)(O)OCC[N+](C)(C)C)OC(=O)CCCCCCCCCCCCCCC (stereo not drawn) [COLFOSCERIL PALMITATE] | > 46 |
| CCC(C)C(N)C(=O)O (stereo not drawn) [ISOLEUCINE] | > 46 |
| CC(C)(C)c1ccc2c(S(=O)(=O)[O-])c(C(C)(C)C)ccc2c1 [DIBUNATE SODIUM] | > 46 |
| CO[C@H]1[C@@H](O)CC(O[C@@H]1C)OC2[C@@H](O)CC(O[C@@H]2C)OC3[C@@H](O)C[C@@H](O[C@@H]3C)OC4CC[C@@]5(C)C(CCC6C5CC(O)[C@]7(C)[C@@H](CCC67O)C/8=C/C(=O)OC8)C4 (stereo partly drawn) [METILDIGOXIN] | > 46 |
| C/C(=N\O)c1ccc(OCC(=O)N2CCCCC2)cc1 [Pifoxime] | > 46 |
| CCN1CC(CCN2CCOCC2)C(c2ccccc2)(c2ccccc2)C1=O (stereo not drawn) [DOXAPRAM HYDROCHLORIDE] | > 46 |
| CC(=O)OC1CC(OC2C(O)CC(OC3C(O)CC(O[C@H]4CC[C@]5(C)C6CC[C@]7(C)[C@@H](C8=CC(=O)OC8)[C@@H](O)C[C@]7(O)[C@@H]6CC[C@@H]5C4)OC3C)OC2C)OC(C)C1OC1OC(CO)C(O)C(O)C1O (stereo partly drawn) [Lanatoside B] | > 46 |
| C[C@]12CCC(=O)C(=O)C1CC[C@@H]1[C@@H]2CC[C@]2(C)C(=O)CC[C@@H]12 (stereo partly drawn) [FORMESTANUM] | > 46 |
| COc1cc2c(cc1OC)C(=O)C(CC1CCN(Cc3ccccc3)CC1)C2 (stereo not drawn) [DONEPEZIL HYDROCHLORIDE] | > 46 |
| Cc1ccc(C(=O)Nc2ccc(S(=O)(=O)O)c3cc(S(=O)(=O)O)cc(S(=O)(=O)O)c23)cc1NC(=O)c1cccc(NC(=O)Nc2cccc(C(=O)Nc3cc(C(=O)Nc4ccc(S(=O)(=O)O)c5cc(S(=O)(=O)O)cc(S(=O)(=O)O)c45)ccc3C)c2)c1 [SURAMIN] | > 46 |
| N[C@@H](CSCCCO)C(=O)O [FUDOSTEINE] | > 46 |
| NC(=O)OC[C@@H]1[C@H](NC(=O)/C(=N/OCC(=O)[O-])c2csc(N)n2)C(=O)N1S(=O)(=O)[O-] [CARUMONAM SODIUM] | > 46 |
| O=C(O)CCCCC1CCSS1 (stereo not drawn) [alpha-Lipoic acid] | > 46 |
| O.[Na+].CCOC1=CC=C2C=CC=CC2=C1C(=O)N[C@H]3[C@@H]4SC(C)(C)[C@@H]([N@@]4C3=O)C([O-])=O [Nafcillin sodium salt monohydrate] | > 46 |
| CC(=O)OCC(COC(C)=O)OC(C)=O [Triacetin] | > 46 |
